Results published in US6875792B2, “Dosage form of L-Methionine S-Sulfoximine” (MSO Pharma LLC, priority 2002, dated 2005).
Like-named read-outs stand apart in the source and are kept apart here.

Assays:
glutamine synthetase [1] = target: glutamine synthetase (Macaca mulatta, UniProt F7CAM5)
Experimental: (§1) The Hawkins data is represented with closed circles whereas the comparison tested rats are represented with “+” and open circle symbols. The monkey results are shown with triangles. N represents the number of animals studied.
(§2) The monkeys who received LSMSO at doses of 5 and 10 mg/kg were anesthetized for a four hour period prior to sacrifice.

[2] = cited from earlier work
[3] = rats vs dogs; cited from earlier work
[4] = cited from earlier work; remark: listed apart in the source
[5] = rats, cited from earlier work; for paroxysmal symptoms: 100 mg/kg and 50 mg/kg, 20 hours; for brain glutamine level versus paroxysmal dose: 100 and 50 mg/kg vs 200 mg/kg, 20 hours after administration
[6] = mice; cited from earlier work
[7] = cited from earlier work; remark: listed apart in the source
glutamine synthetase [8] = settings: cited from earlier work
[9] = target: γ-glutamylcysteine synthetase (Rattus norvegicus, UniProt P19468); settings: cited from earlier work
glutamine synthetase [10] = target: T1, glutamine synthetase (Rattus norvegicus, UniProt P09606); settings: cited from earlier work
glutamine synthetase [11] = target: T1, glutamine synthetase; settings: MSO pretreatment, cited from earlier work
[12] = portacaval anastomosis rats infused with ammonium acetate, 150 mg/kg pretreatment; cited from earlier work
[13] = target: cortical glutamine synthetase (Rattus norvegicus, UniProt P09606); settings: model of acute hyperammonemia; cited from earlier work
[14] = rats; did not affect MSO's inhibition of GS; cited from earlier work
[15] = target: T2, gamma glutamyl cysteine synthetase (Rattus norvegicus, UniProt P19468); settings: cited from earlier work
T2 construct: host or cells: rat brain in vivo
T2 sequence (P19468 1-637): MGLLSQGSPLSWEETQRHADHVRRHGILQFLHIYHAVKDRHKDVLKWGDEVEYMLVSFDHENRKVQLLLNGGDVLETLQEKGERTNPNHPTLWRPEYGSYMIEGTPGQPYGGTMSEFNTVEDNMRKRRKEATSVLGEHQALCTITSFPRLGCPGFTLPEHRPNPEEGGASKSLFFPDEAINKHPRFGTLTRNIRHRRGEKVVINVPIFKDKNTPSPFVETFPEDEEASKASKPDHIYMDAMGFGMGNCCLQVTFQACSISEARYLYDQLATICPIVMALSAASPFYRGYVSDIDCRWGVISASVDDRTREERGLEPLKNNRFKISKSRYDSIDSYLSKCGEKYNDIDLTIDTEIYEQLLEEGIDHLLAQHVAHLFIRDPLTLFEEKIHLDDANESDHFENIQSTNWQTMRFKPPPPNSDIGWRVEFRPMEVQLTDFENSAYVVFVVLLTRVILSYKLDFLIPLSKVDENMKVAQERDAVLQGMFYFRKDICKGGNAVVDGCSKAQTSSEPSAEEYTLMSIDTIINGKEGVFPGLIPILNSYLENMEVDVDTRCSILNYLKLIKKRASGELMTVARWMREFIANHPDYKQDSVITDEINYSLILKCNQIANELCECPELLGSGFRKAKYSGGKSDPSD

glutamine synthetase [16] = target: T1, glutamine synthetase; settings: low dose intravenous, 24 hours prior to sacrifice
Experimental: as §1, §2

[17] = low doses
Source text: As stated above, one unfortunate and well known side effect of MSO is that it is a convulsant.

T1 sequence (P09606 2-373 limits assumed): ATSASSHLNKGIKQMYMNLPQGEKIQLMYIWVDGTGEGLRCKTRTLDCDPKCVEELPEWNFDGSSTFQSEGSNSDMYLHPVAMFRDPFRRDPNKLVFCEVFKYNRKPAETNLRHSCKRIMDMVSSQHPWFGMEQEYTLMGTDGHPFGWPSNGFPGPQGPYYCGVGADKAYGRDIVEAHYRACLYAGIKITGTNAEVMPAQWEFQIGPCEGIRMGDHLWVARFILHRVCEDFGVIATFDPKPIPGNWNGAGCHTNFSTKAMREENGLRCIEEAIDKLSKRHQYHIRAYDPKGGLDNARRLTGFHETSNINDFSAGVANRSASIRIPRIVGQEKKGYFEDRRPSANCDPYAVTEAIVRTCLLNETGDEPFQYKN
Chain of cortical glutamine synthetase (P09606 2-373 limits assumed): as above
Chain of glutamine synthetase (Macaca mulatta, UniProt F7CAM5) (F7CAM5 1-373): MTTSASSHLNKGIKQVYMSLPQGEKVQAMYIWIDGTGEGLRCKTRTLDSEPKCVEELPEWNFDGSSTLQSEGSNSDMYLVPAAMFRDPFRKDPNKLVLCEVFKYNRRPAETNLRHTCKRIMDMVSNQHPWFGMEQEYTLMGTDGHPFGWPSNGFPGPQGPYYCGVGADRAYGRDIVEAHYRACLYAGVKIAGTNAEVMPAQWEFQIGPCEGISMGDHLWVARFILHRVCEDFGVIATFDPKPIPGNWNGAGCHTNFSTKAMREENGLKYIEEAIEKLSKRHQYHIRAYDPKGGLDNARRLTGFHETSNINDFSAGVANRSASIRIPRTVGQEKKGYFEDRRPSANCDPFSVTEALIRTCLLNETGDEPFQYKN
Chain of γ-glutamylcysteine synthetase (P48508 whole entry partner, one chain of several): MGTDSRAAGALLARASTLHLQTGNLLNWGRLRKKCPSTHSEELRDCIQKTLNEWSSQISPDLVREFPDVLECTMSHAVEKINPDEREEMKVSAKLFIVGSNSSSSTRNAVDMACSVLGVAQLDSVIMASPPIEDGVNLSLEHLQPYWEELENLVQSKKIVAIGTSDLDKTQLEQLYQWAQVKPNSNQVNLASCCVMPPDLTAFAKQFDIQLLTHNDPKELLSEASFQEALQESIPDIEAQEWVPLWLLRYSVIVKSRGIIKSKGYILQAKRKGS

CS(=N)(=O)CC[C@H](N)C(=O)O (some centres unmarked) [MSO, methionine sulfoximine]
activity and appetite (glutamine synthetase [1]; one monkey, 2.5 mg/kg, 24 hour period prior to sacrifice): normal | sensitivity to the glutamine synthetase inhibiting effect (glutamine synthetase [1]; primates compared to rats, low doses, FIG. 1): more sensitive | resistance to MSO relative to dogs ([2]; monkeys vs dogs): approximately 100 times | resistance to MSO relative to dogs [3]: approximately 100 times | tumor regression ([4]; patients with far-advanced, nonresectable cancer): no evidence of tumor regression | hepatic or renal function or hematological status ([4]; patients, divided doses every 6 or 8 hours): no change | paroxysmal symptoms [5]: did not differ in any way from the control animals | paroxysmal symptoms ([5]; listed as MSI): no paroxysmal symptoms | seizures at highest dose ([5]; 200 mg/kg): had seizures | brain glutamine level versus paroxysmal dose [5]: decreased to the same degree | brain glutamine level versus paroxysmal dose ([5]; listed as MSI): reduced to the same degree | in vivo ammonia toxicity [6]: marked decrease | most effective dosage for episodic running behavior to repeated sounds ([7]; cats and rats): 7.5 mg/kg | effect at 10 mg/kg ([7]; cats, 10 mg/kg): early convulsive episodes | amounts that did not render cats susceptible ([7]; cats): less than 5 mg/kg | inhibition at 72 hours (glutamine synthetase [8]; brain, 72 hours): remains to a considerable degree | persistence of inhibitory effect on glutamine synthetase (glutamine synthetase [8]; brain): a long as seven days | time of maximal inhibition in the brain (glutamine synthetase [8]; single injection): 24 h | inhibition of γ-glutamylcysteine synthetase [9]: effective inhibitor | glutamine synthetase activity (glutamine synthetase [10]; rats, 5 to 200 mg/kg intraperitoneal): decreased in proportion to the dose | toxicity (glutamine synthetase [10]; rats, 5 to 200 mg/kg intraperitoneal, except at the highest dose of 200 mg/kg): no evidence of toxicity | time to raised brain concentration of ammonia (glutamine synthetase [10]; single intraperitoneal injection): ≤ 2 h | cortical glutamine levels (glutamine synthetase [11]; group IV hyperammonemic rats): did not increase | inhibition of glutamine synthetase activity (glutamine synthetase [11]; within the brain): 64% | brain edema [12]: ameliorated | intracranial pressure [12]: did not rise | inhibition of cortical glutamine synthetase [13]: 64% | prevented increase in cortical glutamine concentration [13]: 13 mmol/kg

CSCC[C@H](N)C(=O)O [methionine]
MSO-induced seizures on administration of methionine ([2]; monkeys and dogs): suppressed | protection from the convulsant effect of MSO [14]: protected

CCCCS(=N)(=O)CCC(N)C(=O)O (centres unmarked) [buthionine sulfoximine]
hyperammonemic brain swelling [15]: did not prevent

CS(=N)(=O)CC[C@H](N)C(=O)O (stereo partly drawn) [LSMSO, L-methionine S-sulfoximine]
state of the rats prior to sacrifice (glutamine synthetase [16]): awake and asymptomatic | brain glutamine levels [17]: lowered | seizures ([17]; LSMSO alone): no seizures | glutamine synthetase inhibition at low doses (glutamine synthetase [10]; rats, doses of less than 20 mg/kg): dramatic decrease
